# In patent US20180117013A1, “METHODS OF TREATING LIVER DISEASE USING INDANE ACETIC ACID DERIVATIVES” (T3D THERAPEUTICS, INC., priority 2015, published 2018):
# Test system: high fat diet ZDF rats
# Test: NAFLD/NASH animal model, high fat diet ZDF rats
# Assay type: in vivo, rat
# Conditions: high fat diet ZDF male rats; all three doses (0.3, 1.0, 3 mg/kg) PO q.d. for 5 weeks
# Method: Twelve week old ZDF male rats (n=6 per group) were acclimated for 3 weeks prior to study initiation then fed with either a high fat (D12492+0.5% added cholesterol with 55% wt/vol fructose in drinking water) or low fat (DL12405J) diets. The compound of Example 10 above, vehicle, or pioglitizone were administered by oral gavage q.d. for 5 weeks as described in Table 1.
# Body weights were recorded weekly, and blood samples were collected from all animals at the end of weeks 4, 5, 6 and 7 following an overnight fast, and triglycerides, cholesterol, AST, ALT, insulin, and BG were measured in singlet. After week 8, the livers were harvested from all animals and weighed. The left lobe was placed in 10% NBF for NASH scoring by PAI (H % E staining, Oil Red O staining and Sirius Red staining). One half of the right lobe was snap-frozen for qPCR (to quantify type 1 collagen, insulin receptor, IGF-1, ceramide synthase 2, sphingomyelin phosphodiesterase 3, MCP-1 and IL-6). The remaining right lobe was snap-frozen for estimation of liver triglycerides and cholesterol.
structure (smiles),measurement,value
"CCc1oc(-c2ccc(OC)cc2)nc1CCOc1ccc2c(c1)CC[C@H]2CC(=O)O [Example 10, (S)-2-(5-(2-(5-ethyl-2-(4-methoxyphenyl)oxazol-4-yl)ethoxy)-2,3-dihydro-1H-inden-1-yl)acetic acid]",protection from NASH like symptoms,protection from NASH like symptoms
